From PubChem BioAssay (NCI) come the findings set out here.

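96-well plates; 48 h exposure; 5 concentrations. Endpoints by linear interpolation between flanking doses. Not reached: highest tested concentration assigned. TGI marks complete inhibition of growth.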 A value given as a limit tells only on which side of the number the result lay.

Common to all, as to assay: NCI anticancer screen, dose series, 48 h
For assay [1], the system named is A549 NSCLC.
In assay [2] the test system is HCC-2998 colon.
Assay [3] relates to HL-60(TB) leukemia.
Assay [4] concerns HOP-92 NSCLC.
Assay [5] has as its system IGROV1 ovarian.
The subject of assay [6] is K-562 leukemia.
In assay [7] the test system is MOLT-4 leukemia.
In assay [8] the test system is OVCAR-3 ovarian.
For assay [9], the system named is SF-268 CNS.
Assay [10] has as its system SF-295 CNS.
For assay [11], the system named is SK-OV-3 ovarian.
In assay [12] the test system is SNB-75 CNS.
The subject of assay [13] is TK-10 renal.
The subject of assay [14] is U251 CNS.
In assay [15] the test system is UACC-257 melanoma.
For assay [16], the system named is CAKI-1 renal.
Assay [17] deals with NCI-H226 lung.
Assay [18] has as its system OVCAR-4 ovarian.
Assay [19] relates to MDA-MB-435.

For the molecule `Clc1ccc2c(c1)C1C(CO2)C(c2ccccc2)=NN1c1ccccc1` (stereo not given), the TGI in assay [1] is greater than 100 µM; in assay [2] it was greater than 100 µM; in assay [3], 53.1 µM; in assay [4], 58.9 µM; in assay [5], greater than 100 µM; in [6] it was 93.8 µM. Also, the TGI in assay [7] is 62.6 µM; in assay [8], greater than 100 µM; in assay [9] it was greater than 100 µM; in [10], greater than 100 µM; in assay [11] it was greater than 100 µM; in [12], 82.9 µM. In addition, the TGI in assay [13], in assay [14] and in [15] was greater than 100 µM in each case.
For the molecule `Nc1ccc2nc(Nc3ccc(F)cc3)cnc2c1`, the TGI in assay [1], in [16], in assay [2], in assay [3], in assay [6] and in assay [7] was greater than 100 µM throughout. Moreover, the TGI in [17], in assay [8], in assay [18], in assay [9], in assay [10] and in assay [12] was greater than 100 µM throughout. The TGI in assay [13] and in assay [15] was greater than 100 µM in each case.
As for `COc1ccc(C(=O)Cc2c(C(=O)c3ccccc3)c3ccccc3n2C(=O)c2ccccc2)cc1`, the TGI in assay [1], in assay [16], in [2], in assay [3], in assay [4] and in assay [5] was greater than 100 µM throughout. The TGI in [6], in assay [7], in assay [17], in assay [8], in assay [18] and in [9] was greater than 100 µM in each case. The TGI was greater than 100 µM in assay [10]; 99.6 µM in assay [12]; greater than 100 µM in assay [13]; greater than 100 µM in assay [14]; greater than 100 µM in [15].
With `CC(C)c1ccc(C2C3=C(N=C4SCC(=O)N42)C(=O)c2ccccc23)cc1` (stereo not given), the TGI in assay [1], in assay [16], in assay [2], in [3], in assay [4] and in assay [5] was greater than 100 µM throughout. In addition, the TGI in assay [6], in assay [7], in assay [17], in [8], in assay [18] and in assay [9] was greater than 100 µM throughout. Also, the TGI in [10], in assay [11], in assay [12], in [13], in assay [14] and in assay [15] was greater than 100 µM throughout.
Take `COc1cccc(NC(=O)/C(CC(=O)CC(c2ccccc2)c2c(O)c3ccccc3oc2=O)=N\NC(C)(C)C)c1OC` (stereo not given): the TGI in assay [1], in assay [16], in assay [2], in assay [3], in assay [4] and in assay [5] was greater than 100 µM each time. Besides, the TGI in [6], in [7], in [8], in assay [18], in assay [9] and in [10] was greater than 100 µM throughout. Also, the TGI in assay [11], in [12], in assay [13], in assay [14] and in assay [15] was greater than 100 µM each time.
Take `CC(=O)OC[C@]1(O)CC[C@@]23CC1C[C@@H]2CCC1C(C)(C)CCC[C@@]13C` (stereo not given in full): the TGI in assay [1] came to 29.6 µM; in assay [16], 32.4 µM; in [2] it was 33 µM; in [3] it was 20.4 µM; in assay [4] it was 27.8 µM; in assay [5], 34.5 µM. Also, the TGI in [6] amounted to 20.3 µM; in [7], 15.8 µM; in assay [17] it was 32.7 µM; in assay [8] it was 30.8 µM; in assay [18], 30 µM; in assay [9] it was 30.4 µM. Further, the TGI in assay [10] was 32 µM; in assay [11], 28.9 µM; in assay [12], 30 µM; in [13] it was 26.2 µM; in assay [14], 27.1 µM; in assay [15], 29.4 µM.
Take `O=C1CCC(=O)N1Cc1ccccc1N=[N+]([O-])c1ccccc1CN1C(=O)CCC1=O`: the TGI in [1], in [2], in assay [3], in assay [5], in [6] and in assay [7] was greater than 100 µM in each case. In addition, the TGI in [8] is greater than 100 µM; in [18], greater than 100 µM; in assay [9], greater than 100 µM; in assay [10] it was greater than 100 µM; in assay [12], 65.6 µM; in assay [13] it was greater than 100 µM. In assay [14], this molecule showed a TGI greater than 100 µM.
Turning to `CC(=O)OC1COC(Nc2ccc(C(C)=O)cc2)C(OC(C)=O)C1OC(C)=O` (stereo not given), the TGI in [1], in assay [16], in assay [2], in assay [4], in assay [5] and in [6] was greater than 100 µM each time. Further, the TGI in [7], in assay [17], in [8], in [18], in assay [9] and in assay [10] was greater than 100 µM throughout. In addition, the TGI in [11], in assay [12], in assay [13], in assay [14] and in [15] was greater than 100 µM each time.
As to `COc1ccc(C2CC(c3ccccc3)=Nc3c(-c4ccccc4)nnn32)cc1` (stereo not given), the TGI in assay [1], in assay [16], in assay [3], in [5], in [6] and in [19] was greater than 100 µM in each case. For the same molecule, the TGI in [7], in assay [17], in assay [8], in assay [9], in [10] and in assay [11] was greater than 100 µM throughout. Further, the TGI in assay [14] and in assay [15] was greater than 100 µM throughout.
Take `Cc1cc2nc(CCC(=O)O)c(=O)[nH]c2cc1C`: the TGI in assay [1], in [16], in assay [2], in assay [3], in [4] and in [5] was greater than 100 µM each time. The TGI in [6], in assay [7], in assay [17], in assay [8], in [18] and in assay [9] was greater than 100 µM in each case. Besides, the TGI in assay [10], in [11], in assay [12], in assay [13], in [14] and in [15] was greater than 100 µM in each case.
For `COC(=O)N1CCc2c(nc(N(C)CCO)[nH]c2=O)C1`, the TGI in [1], in [16], in assay [2], in assay [3], in assay [4] and in [5] was greater than 100 µM throughout. Further, the TGI in [6], in assay [7], in [17], in [8], in assay [9] and in assay [10] was greater than 100 µM in each case. The TGI in [11], in assay [12], in assay [13], in assay [14] and in assay [15] was greater than 100 µM in each case.
As for `O=C(NC(CS)C(=O)O)c1cccc2c(=O)c3ccccc3[nH]c12` (stereo not given), the TGI in assay [1], in assay [3], in [4], in assay [5], in assay [6] and in assay [19] was greater than 100 µM throughout. Also, the TGI in assay [7], in [17], in assay [8], in assay [18], in [9] and in assay [10] was greater than 100 µM in each case. Besides, the TGI in assay [11], in assay [12], in [13] and in assay [14] was greater than 100 µM each time.
In the case of `Cc1ccc2ccccc2c1NC1=NCCO1`, the TGI in assay [1] was greater than 100 µM; in [2], greater than 100 µM; in assay [3], greater than 100 µM; in assay [4] it was 46.8 µM; in assay [5], greater than 100 µM; in assay [6], greater than 100 µM. Further, the TGI is greater than 100 µM in [19]; greater than 100 µM in [7]; 74.5 µM in assay [17]; greater than 100 µM in assay [18]; greater than 100 µM in [9]; greater than 100 µM in [10]. For the same molecule, the TGI in assay [11], in [12], in assay [13], in assay [14] and in assay [15] was greater than 100 µM in each case.
Consider `[O-][n+]1onc2c1CCC(=N\O)/C2=N/Nc1ccccc1`, for which the TGI in assay [1], in assay [16], in assay [3], in assay [5], in [6] and in [19] was greater than 100 µM in each case. Besides, the TGI in assay [7], in assay [17], in [8], in [18], in [9] and in [10] was greater than 100 µM each time. In addition, the TGI in [11], in assay [12], in assay [13] and in assay [15] was greater than 100 µM each time.
Consider `CCOC(=O)C(/C=N\C(=S)Nc1ccc(Cl)c(Cl)c1)=C(/O)c1ccccc1`, for which the TGI in assay [1] was greater than 100 µM; in assay [16], 84.9 µM; in assay [2] it was 60.4 µM; in assay [3], greater than 100 µM; in assay [5], greater than 100 µM; in [19] it was 93.5 µM. The TGI in [7], in assay [17], in [18], in [9], in [10] and in [11] was greater than 100 µM in each case. In addition, the results for the TGI in [12], in assay [14] and in [15] were 55.9 µM, greater than 100 µM and greater than 100 µM, respectively.
`N#C/C(=C/c1ccc[nH]1)P(=O)(O)O`: the TGI in assay [1], in assay [16], in assay [2], in [3], in [4] and in assay [6] was greater than 100 µM each time. The TGI in assay [7], in assay [17], in assay [8], in [18], in [9] and in assay [10] was greater than 100 µM in each case. The TGI in [11], in [12], in [13], in assay [14] and in [15] was greater than 100 µM in each case.
`O=C1c2ccccc2NC(=O)C2C1C(c1ccccc1)CC2(O)c1ccccc1` (stereo not given): the TGI was greater than 100 µM in [1]; greater than 100 µM in [16]; greater than 100 µM in assay [2]; greater than 100 µM in assay [3]; 67 µM in [4]; greater than 100 µM in [5]. Also, the TGI was greater than 100 µM in assay [19]; 71.5 µM in [7]; greater than 100 µM in assay [8]; greater than 100 µM in assay [18]; greater than 100 µM in [9]; greater than 100 µM in assay [10]. Also, the TGI in [11] was greater than 100 µM; in assay [12] it was 0.0677 µM; in assay [13], 99.7 µM; in [15], greater than 100 µM.
